The subject of one series is M. avium 104. Description: microbe, parasite or virus in culture. The class given is cell-based, Mycobacterium avium.
Another series deals with Staphylococcus aureus. Put plainly: microbe, parasite or virus in culture. The class given is cell-based.
The test system of a further series is OCT313-resistant BCG. Put plainly: microbe, parasite or virus in culture. In kind it is cell-based, Mycobacterium bovis BCG.
A further series concerns Escherichia coli DH5α. Description: microbe, parasite or virus in culture. The class given is cell-based.
For a further series, the system named is M. tuberculosis H37Rv. Put plainly: microbe, parasite or virus in culture. In kind it is cell-based, Mycobacterium tuberculosis.
For the next series, the system named is M. smegmatis mc^2 155. Put plainly: microbe, parasite or virus in culture. The class given is cell-based, Mycobacterium smegmatis.
For another series, the system named is A549. Conditions: human.
A further series concerns M. bovis. Put plainly: microbe, parasite or virus in culture. The class given is cell-based, Mycobacterium bovis.
Another series deals with THP-1. Conditions: human.
The subject of series [1] is M. bovis BCG Tokyo 172. Description: microbe, parasite or virus in culture. The class given is cell-based, Mycobacterium bovis BCG.
Another series concerns MRC-5. Conditions: human.
Series [2] addresses recombinant wild-type M. bovis BCG PTA (Mycobacterium bovis, UniProt A0A679LAX5). Put plainly: biochemical. In kind it is biochemical.
Series [3] deals with M. bovis BCG Tokyo 172. The class given is cell-based, Mycobacterium bovis BCG.
The target in the next series is L. mesenteroides PTA (Leuconostoc mesenteroides, UniProt Q03W64). The class given is biochemical.
Series [4] relates to OCT313-resistant BCG strains OCTR_3 and OCTR_4. In kind it is cell-based, Mycobacterium bovis BCG.
Where [5] appears, read: Mycobacterium avium, 104, 168 h.
Setting [6] is: Mycobacterium tuberculosis variant bovis BCG, BCG, 336 h.
Setting [7] is: Mycobacterium tuberculosis, H37RV.
[8] abbreviates: Mycobacterium tuberculosis, H37RV, 336 h.
Setting [9] is: Mycolicibacterium smegmatis, MC^2155, 72 h.
Setting [10] is: Mycobacterium tuberculosis variant bovis, 336 h.

In brackets after ≈: the same amount, converted by molar mass. Like-named read-outs stand apart in the source and are kept apart here.

These results are taken from PMC12724200 (mSphere, 2025).

In general, IC50 refers to the point on the concentration scale where inhibition reaches its midpoint.

Sequence of recombinant wild-type M. bovis BCG PTA (A0A679LAX5 1-690): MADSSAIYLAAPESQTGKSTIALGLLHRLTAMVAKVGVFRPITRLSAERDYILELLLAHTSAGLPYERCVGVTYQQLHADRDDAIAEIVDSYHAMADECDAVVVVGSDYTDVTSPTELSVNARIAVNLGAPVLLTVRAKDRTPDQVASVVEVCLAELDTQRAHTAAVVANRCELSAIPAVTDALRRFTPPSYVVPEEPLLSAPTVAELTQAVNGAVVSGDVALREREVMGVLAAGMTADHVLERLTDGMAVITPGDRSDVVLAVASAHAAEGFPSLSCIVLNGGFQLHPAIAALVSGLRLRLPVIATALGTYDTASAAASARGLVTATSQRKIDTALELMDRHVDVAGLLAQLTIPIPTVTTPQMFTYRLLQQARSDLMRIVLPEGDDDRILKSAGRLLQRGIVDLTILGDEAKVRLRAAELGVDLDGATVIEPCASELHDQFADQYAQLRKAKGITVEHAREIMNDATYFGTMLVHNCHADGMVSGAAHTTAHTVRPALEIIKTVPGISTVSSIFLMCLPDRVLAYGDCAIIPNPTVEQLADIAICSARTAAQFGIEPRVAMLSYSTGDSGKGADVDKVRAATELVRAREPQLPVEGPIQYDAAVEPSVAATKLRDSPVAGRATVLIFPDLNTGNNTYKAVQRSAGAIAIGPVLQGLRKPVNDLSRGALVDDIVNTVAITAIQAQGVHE
Sequence of L. mesenteroides PTA (Q03W64 1-326): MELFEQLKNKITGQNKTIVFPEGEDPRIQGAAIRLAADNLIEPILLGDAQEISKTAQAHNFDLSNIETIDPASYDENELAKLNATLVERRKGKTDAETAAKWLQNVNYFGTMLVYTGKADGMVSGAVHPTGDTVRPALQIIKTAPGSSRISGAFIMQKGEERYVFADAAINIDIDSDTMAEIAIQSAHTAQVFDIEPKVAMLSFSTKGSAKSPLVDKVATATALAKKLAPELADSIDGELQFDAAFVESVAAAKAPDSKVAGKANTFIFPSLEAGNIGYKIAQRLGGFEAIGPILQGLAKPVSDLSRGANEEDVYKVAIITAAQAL

For the molecule `CC[C@@H](CO)NCCN[C@@H](CC)CO` [EB, ethambutol], the MIC against M. avium 104 (setting [5]) was 1.6 µg/mL (≈ 7.83 µM); against Staphylococcus aureus (Staphylococcus aureus) it was above 100 µg/mL; against OCT313-resistant BCG (setting [6]) it was 3 µg/mL (≈ 14.7 µM); against Escherichia coli DH5α (Escherichia coli), above 100 µg/mL; in the series on M. tuberculosis H37Rv (setting [7]), 2.5 µg/mL (≈ 12.2 µM); against M. tuberculosis H37Rv (setting [8]), 2.5 µg/mL (≈ 12.2 µM). The MIC in the series with M. smegmatis mc^2 155 (setting [9]) worked out at 12.5 µg/mL (≈ 61.2 µM); with M. bovis (setting [10]), 0.78 µg/mL (≈ 3.82 µM); in the series on M. bovis BCG Tokyo 172 [1] (setting [6]), 3 µg/mL (≈ 14.7 µM). The 85% survival conc. in the series on A549 is 1,000 μg/mL; with THP-1 it was 500 µg/mL; with MRC-5, 250 µg/mL. Further, the LC50/MIC is given as 1,434 in the series with A549, 916 in the series with THP-1 and 111 in the series with MRC-5.

In the case of `CC(=O)N[C@@H]1[C@@H](O)[C@H](O)[C@@H](CO)O[C@@H]1O` [GlcNAc, N-acetyl-D-glucosamine], the MIC in the series on M. avium 104, against Staphylococcus aureus, against OCT313-resistant BCG, against Escherichia coli DH5α, in the series with M. tuberculosis H37Rv and in the series on M. smegmatis mc^2 155 was >1,000 μg/mL in each case. The MIC with M. bovis and against M. bovis BCG Tokyo 172 [1] was >1,000 μg/mL each time. The “Inhibition of PTA enzyme activity (in words)” value in series [2] is reported as “not sufficient to inhibit enzyme activity”.

As for `NNC(=O)c1ccncc1` [INH, isoniazid], the MIC against M. avium 104 (setting [5]) is 1.56 µg/mL (≈ 11.4 µM); with Staphylococcus aureus (Staphylococcus aureus) it was above 100 µg/mL; in the series with OCT313-resistant BCG (setting [6]), 0.04 µg/mL (≈ 0.292 µM); against Escherichia coli DH5α (Escherichia coli) it was above 100 µg/mL; with M. tuberculosis H37Rv (setting [7]), 0.04 µg/mL (≈ 0.292 µM); in the series on M. tuberculosis H37Rv (setting [8]), 0.04 µg/mL (≈ 0.292 µM). The MIC against M. smegmatis mc^2 155 (setting [9]) came to 3.13 µg/mL (≈ 22.8 µM); against M. bovis (setting [10]), 0.04 µg/mL (≈ 0.292 µM); in the series on M. bovis BCG Tokyo 172 [1] (setting [6]), 0.04 µg/mL (≈ 0.292 µM). Further, the “Antibacterial activity in Wayne dormancy model” value (“Antibacterial activity” below) with M. bovis BCG Tokyo 172 [3] is “showed reduced activity”. For the same molecule, the 85% survival conc. in the series on A549 was 1,000 μg/mL; with THP-1, 100 µg/mL; in the series on MRC-5, 250 µg/mL. The LC50/MIC with A549 is 77,277; in the series with THP-1, 53,613; in the series with MRC-5, 7,325.

Regarding `Cc1ncc([N+](=O)[O-])n1CCO` [MTZ, metronidazole], the “Antibacterial activity” value with M. bovis BCG Tokyo 172 [3] is “showed antibacterial activity”.

As to `CCN1C(=O)C=CC1=O` [NEM, N-ethylmaleimide], the values for the half-maximal inhibitory concentration (IC50) (at L. mesenteroides PTA; in [2]) were 50.9 µM and 14.5 µM, respectively.

In the case of `CC(=O)N[C@@H]1[C@@H](O)[C@H](O)[C@@H](CO)O[C@H]1SC(=S)N(C)C` [OCT313, 2-acetamido-2-deoxy-β-D-glucopyranosyl N,N-dimethyldithiocarbamate], the figures for the 50% inhibitory concentration (IC50) (at L. mesenteroides PTA; in series [2]) were above 1000 µM and 2.79 µM, respectively. For the same molecule, the MIC in the series with M. avium 104 (setting [5]) is above 100 µg/mL; against Staphylococcus aureus (Staphylococcus aureus), above 100 µg/mL; against OCT313-resistant BCG (Mycobacterium tuberculosis variant bovis BCG, BCG), above 100 µg/mL; against OCT313-resistant BCG (setting [6]), above 200 µg/mL; against Escherichia coli DH5α (Escherichia coli) it was above 100 µg/mL; with M. tuberculosis H37Rv (setting [7]) it was 25 µg/mL (≈ 77.1 µM). Besides, the MIC is 25 µg/mL (≈ 77.1 µM) in the series with M. tuberculosis H37Rv (setting [8]), above 100 µg/mL against M. smegmatis mc^2 155 (setting [9]), 31.3 µg/mL (≈ 96.5 µM) in the series on M. bovis (setting [10]) and 12.5 µg/mL (≈ 38.5 µM) against M. bovis BCG Tokyo 172 [1] (setting [6]). The “Antibacterial activity” value with M. bovis BCG Tokyo 172 [3] was “susceptible to OCT313 in a dose-dependent manner”. The “Inhibition pattern (Lineweaver-Burk plots)” value in series [2] was “mixed inhibition”. Besides, the 85% survival conc. is 500 µg/mL in the series on A549, 1,250 μg/mL in the series with THP-1 and 2,500 μg/mL in the series with MRC-5. Also, the “Change of 50% lethal concentration (LD50) by sugar derivatization” value with A549 is 196 fold; in the series with THP-1, 27 fold; with MRC-5, 550 fold. Also, the figures for the LC50/MIC with A549, with THP-1 and with MRC-5 were 188, 356 and 242, respectively.

Turning to `CO[C@H]1/C=C/O[C@@]2(C)Oc3c(C)c(O)c4c(O)c(c(/C=N/N5CCN(C)CC5)c(O)c4c3C2=O)NC(=O)/C(C)=C\C=C\[C@H](C)[C@H](O)[C@@H](C)[C@@H](O)[C@@H](C)[C@H](OC(C)=O)[C@@H]1C` [RFP, rifampicin], the MIC in the series on M. avium 104 (setting [5]) was 0.25 µg/mL (≈ 0.304 µM); in the series with Staphylococcus aureus (Staphylococcus aureus), 0.02 µg/mL (≈ 0.0243 µM); with OCT313-resistant BCG (setting [6]) it was 0.01 µg/mL (≈ 0.0122 µM); in the series on Escherichia coli DH5α (Escherichia coli), 12.5 µg/mL (≈ 15.2 µM); against M. tuberculosis H37Rv (setting [7]), 0.004 µg/mL (≈ 0.00486 µM); in the series on M. tuberculosis H37Rv (setting [8]) it was 0.004 µg/mL (≈ 0.00486 µM). Moreover, the MIC is 1.56 µg/mL (≈ 1.9 µM) against M. smegmatis mc^2 155 (setting [9]), 0.016 µg/mL (≈ 0.0194 µM) with M. bovis (setting [10]) and 0.01 µg/mL (≈ 0.0122 µM) against M. bovis BCG Tokyo 172 [1] (setting [6]). Besides, the 85% survival conc. with A549, with THP-1 and in the series on MRC-5 was 10 µg/mL throughout. Besides, the results for the LC50/MIC in the series with A549, with THP-1 and in the series on MRC-5 were 44,510, 16,256 and 16,250, respectively.

Turning to `[H]/N=C(/N)N[C@H]1[C@H](O)[C@@H](O)[C@H](O[C@@H]2O[C@@H](C)[C@](O)(C=O)[C@H]2O[C@@H]2O[C@@H](CO)[C@H](O)[C@@H](O)[C@@H]2NC)[C@@H](N/C(N)=N\[H])[C@@H]1O` [SM, streptomycin], the MIC with M. avium 104 (setting [5]) turned out to be 3.13 µg/mL (≈ 5.38 µM); in the series on Staphylococcus aureus (Staphylococcus aureus), 6.25 µg/mL (≈ 10.7 µM); against OCT313-resistant BCG (setting [6]) it was 0.2 µg/mL (≈ 0.344 µM); in the series on Escherichia coli DH5α (Escherichia coli), 25 µg/mL (≈ 43 µM); in the series on M. tuberculosis H37Rv (setting [7]), 0.4 µg/mL (≈ 0.688 µM); against M. tuberculosis H37Rv (setting [8]), 0.39 µg/mL (≈ 0.671 µM). Moreover, the MIC in the series with M. smegmatis mc^2 155 (setting [9]) worked out at 0.39 µg/mL (≈ 0.671 µM); against M. bovis (setting [10]), 0.2 µg/mL (≈ 0.344 µM); against M. bovis BCG Tokyo 172 [1] (setting [6]), 0.2 µg/mL (≈ 0.344 µM). Also, the 85% survival conc. with A549 was 5,000 μg/mL; in the series on THP-1, 100 µg/mL; with MRC-5, 1,000 μg/mL. The LC50/MIC with A549 is reported as 31,350; with THP-1 it was 17,908; in the series with MRC-5 it was 4,175.

Dimethyldithiocarbamate [DMDC]: the MIC was 25 µg/mL against Staphylococcus aureus; 12.5 µg/mL in the series with OCT313-resistant BCG; 200 µg/mL in the series with Escherichia coli DH5α; 1.56 µg/mL in the series on M. tuberculosis H37Rv; above 100 µg/mL with M. smegmatis mc^2 155; 3.13 µg/mL in the series on M. bovis. This molecule also registered an MIC in the series on M. bovis BCG Tokyo 172 [1] of 3.13 µg/mL. Further, in [2], the “Inhibition of PTA enzyme activity (in words)” value is listed as “did not inhibit PTA”. Also, the “Antibacterial activity” value in [4] was “similar”.
